Data: ChEMBL document CHEMBL6178010, “XPO1-Targeting Selective Inhibitors of Transcriptional Activation Suppress Graft-versus-Host Disease” (J Med Chem, 2025)
The source made the active and inactive calls. The calls are words filed in the database; no cut-off is given here.

Assays:
Exportin-1 [1] = target: T1, Exportin-1 (Homo sapiens, UniProt O14980); assay: Inhibition of XPO1 in PMA/ionomycin-activated human Jurkat cells expressing IL-2 promoter reporter gene assessed as suppression of IL-2 transcriptional activity incubated for 6 hrs by Bright-Glo Luciferase assay; type: cell-based
T1 sequence (O14980 whole entry): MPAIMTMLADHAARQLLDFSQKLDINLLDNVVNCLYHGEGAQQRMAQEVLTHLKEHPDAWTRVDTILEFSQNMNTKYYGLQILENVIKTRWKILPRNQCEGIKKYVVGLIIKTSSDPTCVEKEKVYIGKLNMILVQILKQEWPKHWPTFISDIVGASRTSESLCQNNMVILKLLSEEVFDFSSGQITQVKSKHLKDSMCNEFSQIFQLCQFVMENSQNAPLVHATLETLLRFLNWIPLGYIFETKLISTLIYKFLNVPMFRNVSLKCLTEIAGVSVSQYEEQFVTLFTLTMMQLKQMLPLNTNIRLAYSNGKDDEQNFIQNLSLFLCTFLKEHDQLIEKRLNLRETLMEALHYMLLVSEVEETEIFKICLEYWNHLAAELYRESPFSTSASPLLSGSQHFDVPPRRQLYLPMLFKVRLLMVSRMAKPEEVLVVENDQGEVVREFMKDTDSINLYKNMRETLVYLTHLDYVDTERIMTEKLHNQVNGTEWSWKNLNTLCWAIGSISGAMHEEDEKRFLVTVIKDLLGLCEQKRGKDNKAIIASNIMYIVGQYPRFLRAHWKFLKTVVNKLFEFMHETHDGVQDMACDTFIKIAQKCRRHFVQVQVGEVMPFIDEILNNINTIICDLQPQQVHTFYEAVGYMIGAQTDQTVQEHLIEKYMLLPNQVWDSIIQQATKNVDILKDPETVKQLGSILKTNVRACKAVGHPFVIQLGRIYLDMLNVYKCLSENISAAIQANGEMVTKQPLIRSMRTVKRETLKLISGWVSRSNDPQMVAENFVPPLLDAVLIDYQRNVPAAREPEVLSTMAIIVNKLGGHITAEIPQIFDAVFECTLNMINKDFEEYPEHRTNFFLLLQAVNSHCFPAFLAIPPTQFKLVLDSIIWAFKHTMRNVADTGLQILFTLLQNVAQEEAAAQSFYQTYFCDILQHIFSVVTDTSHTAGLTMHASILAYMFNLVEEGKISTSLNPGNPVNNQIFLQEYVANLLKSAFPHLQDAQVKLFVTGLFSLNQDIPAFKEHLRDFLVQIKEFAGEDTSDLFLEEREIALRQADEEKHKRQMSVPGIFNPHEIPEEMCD

Jurkat [2] = assay: Cytotoxicity against human Jurkat cells assessed as suppression of cell viability incubated for 24 hrs by CellTiter-Glo assay; type: functional, cell-based
XPO1 = assay: Selectivity ratio of EC50 for cytotoxicity against human Jurkat cells assessed as suppression of cell viability to EC50 for inhibition of XPO1 in PMA/ionomycin-activated human Jurkat cells expressing IL-2 promoter reporter gene assessed as suppression of IL-2 transcriptional activity; type: toxicity, cell-based; conditions: read-out: Ratio EC50
[3] = Metabolic stability in mouse liver microsome assessed as half life; type: ADME; conditions: liver microsomes
[4] = Metabolic stability in mouse liver microsome assessed as intrinsic clearance; type: ADME; conditions: liver microsomes, read-out: CLH
Jurkat [5] = assay: Downregulation of IL-2 mRNA level in PMA/ionomycin-activated human Jurkat cells expressing XPO1 C528S mutant at 100 nM incubated for 6 hrs by RT-qPCR analysis; type: functional, cell-based
Exportin-1 [6] = target: T1, Exportin-1; assay: Inhibition of selinexor-alkyne binding to XPO1 at Cys528 in human Jurkat cells up to 300 nM pretreated for 1 hr followed by addition of selinexor-alkyne measured after 1 hr by In-gel fluorescence analysis; type: cell-based; conditions: time 2.0 hrs
Jurkat [7] = assay: Cytotoxicity against human Jurkat cells expressing XPO1 C528S mutant assessed as suppression of cell viability up to 1000 nM incubated for 24 hrs by CellTiter-Glo assay; type: functional, cell-based
[8] = Drug exposure in mouse administered intraperitoneally; type: ADME; conditions: in vivo, ip
Mus musculus [9] = assay: Suppression of T-cell activation in irradiated BALB/c mouse transplanted with bone marrow/splenic T-cells from C57BL/6 mouse assessed as downregulation of IFNG in host spleen at 10 mg/kg, ip administered daily for 7 days by RT-qPCR analysis; type: functional, organism-based; conditions: time 7.0 day
Mus musculus [10] = assay: Suppression of T-cell activation in irradiated BALB/c mouse transplanted with bone marrow/splenic T-cells from C57BL/6 mouse assessed as downregulation of CSF2 in host spleen at 10 mg/kg, ip administered daily for 7 days by RT-qPCR analysis; type: functional, organism-based; conditions: time 7.0 day
Mus musculus [11] = assay: Anti-inflammatory activity in irradiated BALB/c mouse transplanted with bone marrow/splenic T-cells from C57BL/6 mouse assessed as suppression of CD3 positive T-cell infiltration in host liver at 10 mg/kg, ip qd administered daily for 7 days by IHC analysis; type: functional, organism-based; conditions: time 7.0 day
[12] = Toxicity in mouse assessed as neutropenia at 10 mg/kg, ip administered daily for 5 days by CBC analysis; type: organism-based; conditions: in vivo, 120 h, time 5 day
[13] = Toxicity in mouse assessed as leukopenia at 10 mg/kg, ip administered daily for 5 days by CBC analysis; type: organism-based; conditions: in vivo, 120 h, time 5 day

EC50 (Exportin-1 [1]) [nM]	SMILES	EC50 (Jurkat [2]) [nM]	selectivity ratio (XPO1)	other results
29.1	CC1=CC(=O)N(N(C)c2nc(N(C)CC3CC3)nn3cccc23)C1=O	187	6.4	half-life [3]: 8.5 min; microsomal CLint [4]: 163 µL/min/mg
170	CC1=CC(=O)N(Nc2nc(C3CCCC3)nn3cccc23)C1=O	955	5.6	
	O=C(Nc1cc(C(F)(F)F)cc(C(F)(F)F)c1)c1cnc(Cl)nc1C(F)(F)F			half-life [3]: < 10 min; microsomal CLint [4]: > 139 µL/min/mg
9.4	CC1=CC(=O)N(Nc2cc(C(F)(F)F)c(C(F)(F)F)cn2)C1=O	190	20.2	
34	CC1=CC(=O)N(Nc2nc(N3CCCC3)nn3cccc23)C1=O	240	7.1	Activity (Jurkat [5]): inactive; half-life [3]: > 60 min; microsomal CLint [4]: < 23 µL/min/mg; inhibition (Exportin-1 [6]): Active; Activity (Jurkat [7]): inactive; Drug uptake [8]: Active
46	CN(c1ccc(C(F)(F)F)c(N2CC(F)(F)C2)n1)N1CC=CC1=O	82	1.8	
	CC1=CC(=O)N(Nc2ccc(C(F)(F)F)c(Cl)n2)C1=O			half-life [3]: 26.1 min; microsomal CLint [4]: 53 µL/min/mg
18	CC1=CC(=O)N(Nc2cc(C(F)(F)F)cc(C(F)(F)F)n2)C1=O	91		
44.7	CC1=CC(=O)N(Nc2nc(-c3cccs3)nn3cccc23)C1=O	170	3.8	
9	CC1=CC(=O)N(Nc2nc(Cl)c(C(F)(F)F)cc2F)C1=O	30	3.3	half-life [3]: 11.4 min; microsomal CLint [4]: 121 µL/min/mg
1630	CC1=CC(=O)N(Nc2ccc(C(F)(F)F)c(N3CCCC3=O)n2)C1=O	4790	2.9	
25	CO[C@@H]1CCN(c2nc(NN3C(=O)C=C(C)C3=O)ccc2C(F)(F)F)C1	400	16	
61	COCC#Cc1cc(NN2C(=O)C=C(C)C2=O)cc(C(F)(F)F)c1	696	11.4	
23	CC1=CC(=O)N(Nc2ccc(C(F)(F)F)c(N3CC(F)(F)C3)n2)C1=O	138	6	half-life [3]: < 10 min; microsomal CLint [4]: > 139 µL/min/mg
5.9	COc1cccc2nc(-c3cccs3)nc(NN3C(=O)C=C(C)C3=O)c12 [AS-602868]	30.2	5.1	half-life [3]: < 10 min; microsomal CLint [4]: > 139 µL/min/mg
	CC1=CC(=O)N(Nc2cc(C(F)(F)F)cc(C(F)(F)F)c2)C1=O			half-life [3]: > 60 min; microsomal CLint [4]: < 23 µL/min/mg; Activity (Mus musculus [9]): Active; Compound Showed Stronger Effect Than Sp100030; Activity (Mus musculus [10]): Active; Compound Showed Stronger Effect Than Sp100030; Activity (Mus musculus [11]): Active; Activity [12]: Non-toxic; Activity [13]: Non-toxic; Drug uptake [8]: Active
250	CC1=CC(=O)N(N(C)c2nc(N3CC(F)(F)C3)nn3cccc23)C1=O	2250	9	
58	CC1=CC(=O)N(Nc2nc(N3CC(F)(F)C3)nn3cccc23)C1=O	447	7.7	
107	CC1=CC(=O)N(Nc2nc(C3CC3)nn3cccc23)C1=O	347	3.2	
724	CC1=CC(=O)N(Nc2ccc(C(F)(F)F)c(-c3ccnn3C)n2)C1=O	1740	2.4	
5.3	CC1=CC(=O)N(N(C)c2ccc(C(F)(F)F)c(N3CCCCC3)n2)C1=O	66	12.5	
80.2	CC1=CC(=O)N(Nc2nc(N(C)C3CCCC3)nn3cccc23)C1=O	423	5.3	
61.5	CC1=CC(=O)N(N(C)c2nc(N3CCCCC3)nn3cccc23)C1=O	386	6.3	
251	CC1=CC(=O)N(Nc2nc(-c3ccnn3C)nn3cccc23)C1=O	1320	5.3	
95.7	CC1=CC(=O)N(N(C)c2nc(N(C)C3CCCC3)nn3cccc23)C1=O	418	4.4	
12	CC1=CC(=O)N(Nc2ccc(C(F)(F)F)c(C3CCCC3)n2)C1=O	34	2.8	half-life [3]: < 10 min; microsomal CLint [4]: > 139 µL/min/mg

EC50 (Exportin-1 [1]) [nM]	SMILES	EC50 (Jurkat [2]) [nM]	selectivity ratio (XPO1)	other results
11	CC1=CC(=O)N(N(C)c2ccc(C(F)(F)F)c(N3CCCC(F)(F)C3)n2)C1=O	70.9	6.4	
7.3	CC1=CC(=O)N(Nc2ccc(C(F)(F)F)c(N3CC4CC(C4)C3)n2)C1=O	38.1	5.2	
1820	CC1=CC(=O)N(Nc2ccc3cn[nH]c3n2)C1=O	6310	3.5	
20.4	CO[C@H]1CCN(c2nc(NN3C(=O)C=C(C)C3=O)ccc2C(F)(F)F)C1	492	24.1	
66.2	CC1=CC(=O)N(Nc2nc(-c3ccccc3)nn3cccc23)C1=O	410	6.2	half-life [3]: 75 min; microsomal CLint [4]: 19 µL/min/mg
4.7	CC1=CC(=O)N(Nc2cc(C(F)(F)F)cc(N3CCCC3)n2)C1=O	26	5.5	
9.7	CC1=CC(=O)N(N(C)c2ccc(C(F)(F)F)c(N3CCC(F)(F)CC3)n2)C1=O	75	7.7	
447	CC1=CC(=O)N(Nc2ccc(C(F)(F)F)c(-n3ccnc3)n2)C1=O	1900	4.2	
40	CC1=CC(=O)N(Nc2ccc(F)c(N3CC(F)(F)C3)n2)C1=O	232	5.8	
2	CC1=CC(=O)N(Nc2ccc(C(F)(F)F)c(N3CCCC3)n2)C1=O	92	46	half-life [3]: < 10 min; microsomal CLint [4]: > 139 µL/min/mg
37	CNc1nc(NN2C(=O)C=C(C)C2=O)ccc1C(F)(F)F	661	17.9	
11	CC1=CC(=O)N(Nc2ccc(C(F)(F)F)c(N3CCC3)n2)C1=O	434	39.5	half-life [3]: < 10 min; microsomal CLint [4]: > 139 µL/min/mg
13	CC1=CC(=O)N(Nc2ccc(C(F)(F)F)c(N3CC4(CCC4)C3)n2)C1=O	82	6.3	
60.4	CC1=CC(=O)N(Nc2nc(N(C)CC3CC3)nn3cccc23)C1=O	329	5.4	half-life [3]: 2.6 min; microsomal CLint [4]: 528 µL/min/mg
156	CC1=CC(=O)N(Nc2ncc(C(F)(F)F)c(Cl)n2)C1=O	338	2.2	half-life [3]: 19.9 min; microsomal CLint [4]: 70 µL/min/mg
222	CC1=CC(=O)N(Nc2nc(N3CCCC(F)(F)C3)nn3cccc23)C1=O	832	3.7	
1.5	CC1=CC(=O)N(Nc2ccc(C(F)(F)F)c(Cl)c2)C1=O	8.6	5.7	
209	CC1=CC(=O)N(N(C)c2nc(N3CCCC(F)(F)C3)nn3cccc23)C1=O	4290	20.5	
2.5	CC1=CC(=O)N(N(C)c2ccc(C(F)(F)F)c(N3CCCCCC3)n2)C1=O	35.9	14.4	
60	CC1=CC(=O)N(Nc2cc(N3CC(F)(F)C3)c(C(F)(F)F)cn2)C1=O	770	12.8	
7.1	CC1=CC(=O)N(N(C)c2ccc(C(F)(F)F)c(N3CC(F)(F)C3)n2)C1=O	47	6.6	
76	CC1=CC(=O)N(Nc2nc(Cl)nn3cccc23)C1=O	813	10.7	
30.1	CC1=CC(=O)N(Nc2nc(N3CCCCC3)nn3cccc23)C1=O	148	4.9	
550	CC1=CC(=O)N(Nc2nc(-c3ccno3)nn3cccc23)C1=O	5620	10.2	
963	CC1=C(C)C(=O)N(Nc2nc(C(F)(F)F)nn3cccc23)C1=O	920	0.96	
